The record followed here is ChEMBL document CHEMBL5532734, “Lysosomal Degradation of Extracellular Targets: Innovations and Implications” (ACS Med Chem Lett, 2024).

SMILES strings stand for the structures.

This experiment deals with T1, Sortilin (Homo sapiens, UniProt Q99523).
T1 sequence (Q99523 whole entry): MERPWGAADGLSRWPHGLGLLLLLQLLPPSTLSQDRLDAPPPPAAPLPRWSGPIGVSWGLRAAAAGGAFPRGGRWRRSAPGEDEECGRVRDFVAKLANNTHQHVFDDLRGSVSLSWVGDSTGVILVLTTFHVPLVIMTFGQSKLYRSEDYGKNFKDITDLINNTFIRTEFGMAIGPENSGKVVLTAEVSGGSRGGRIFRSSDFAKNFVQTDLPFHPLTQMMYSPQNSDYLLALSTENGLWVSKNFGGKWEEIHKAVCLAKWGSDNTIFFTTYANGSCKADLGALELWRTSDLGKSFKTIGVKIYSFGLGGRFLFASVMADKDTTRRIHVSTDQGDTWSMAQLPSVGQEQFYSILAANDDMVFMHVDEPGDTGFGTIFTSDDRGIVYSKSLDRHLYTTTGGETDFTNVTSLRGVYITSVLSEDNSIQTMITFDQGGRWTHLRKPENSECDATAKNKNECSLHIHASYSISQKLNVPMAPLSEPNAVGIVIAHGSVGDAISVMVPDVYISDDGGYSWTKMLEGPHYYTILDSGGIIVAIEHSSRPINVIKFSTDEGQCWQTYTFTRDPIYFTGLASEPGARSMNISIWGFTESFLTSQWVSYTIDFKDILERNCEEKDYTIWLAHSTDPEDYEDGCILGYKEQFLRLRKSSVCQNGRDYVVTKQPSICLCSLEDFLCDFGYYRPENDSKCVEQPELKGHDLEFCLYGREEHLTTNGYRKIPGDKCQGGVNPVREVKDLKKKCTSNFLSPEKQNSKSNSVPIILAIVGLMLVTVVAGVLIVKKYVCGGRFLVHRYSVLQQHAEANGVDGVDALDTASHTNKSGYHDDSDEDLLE
Briefly: Binding affinity to 6-His tagged sortilin (unknown origin) assessed as equilibrium dissociation constant by MST analysis.
Consider `CC(C)(C)CC[C@H](NC(=O)c1ccc(Oc2cccc(C(=O)NCCOCCOCCOCCOCCOCCOc3ncc(-c4ccc5c(n4)N(Cc4cccnc4C#N)C(C)(C)C5=O)cn3)c2)nc1)C(=O)O`, for which the Kd was less than 1 nM.

Turning to `C[C@@H]1CN(c2ncc(-c3ccc4c(n3)N(Cc3cccnc3C#N)C(C)(C)C4=O)cn2)CCN1C(=O)COCCCCNC(=O)c1cccc(Oc2ccc(C(=O)N[C@@H](CCC(C)(C)C)C(=O)O)cn2)c1`, the Kd was less than 1 nM. Consider `CC(C)(C)CC[C@H](NC(=O)c1ccc(Oc2cccc(OCCOCCOCCOCCOCCOCCOCCNC(=O)CCC[C@@H]3SC[C@@H]4NC(=O)N[C@@H]43)c2)nc1)C(=O)O`, for which the Kd stood at 1 nM. `C[C@@H]1CN(c2ncc(-c3ccc4c(n3)N(Cc3cccnc3C#N)C(C)(C)C4=O)cn2)CCN1C(=O)COCCCCCCCCNC(=O)c1cccc(Oc2ccc(C(=O)N[C@@H](CCC(C)(C)C)C(=O)O)cn2)c1`: the dissociation constant Kd was less than 1 nM. Turning to `CC(C)(C)CC[C@H](NC(=O)c1ccc(Oc2cccc(C(=O)NCCOCCOCCOCCOCCOCCNc3ncc(-c4ccc5c(n4)N(Cc4cccnc4C#N)C(C)(C)C5=O)cn3)c2)nc1)C(=O)O`, the Kd was less than 1 nM. As for `C[C@@H]1CN(c2ncc(-c3ccc4c(n3)N(Cc3cccnc3C#N)C(C)(C)C4=O)cn2)CCN1C(=O)CNC(=O)CCCCCCCCCNC(=O)c1cccc(Oc2ccc(C(=O)N[C@@H](CCC(C)(C)C)C(=O)O)cn2)c1`, the Kd is less than 1 nM.

The Kd is the equilibrium constant for the complex coming apart.
